Values of other authors as cited in patent US20070167418A1 (priority 2004, published 2007).
Where two headings read alike, the source gives them in different places.

Tests used:
[1] = tested on: ED; details: oral
[2] = tested on: men with ED; details: intraurethral suppositories
[3] = in vivo
[4] = tested on: men with ED; details: 100 mg; placebo twenty-two percent
[5] = not given; remark: listed apart in the source

COC(=O)[C@@H]1[C@H]2C[C@H]3c4[nH]c5ccccc5c4CCN3C[C@@H]2CC[C@@H]1O [Yohimbine]
efficacy in the treatment of ED [1]: limited efficacy

CCCCC[C@H](O)/C=C/[C@H]1[C@H](O)CC(=O)[C@@H]1CCCCCCC(=O)O [alprostadil]
efficacy compared with penile injection [2]: less effective

CC(C)NCC(O)COc1ccc(CC(N)=O)cc1 (stereo not shown) [atenolol]
men reporting ED after beginning treatment (50 mg, men informed of its sexual adverse effects): 31%
men reporting ED after beginning treatment (similarly treated, men blinded as to the study drug): 3%

CCCc1nn(C)c2c(=O)[nH]c(-c3cc(S(=O)(=O)N4CCN(C)CC4)ccc3OCC)nc12 [sildenafil]
half-life [3]: four to five
men achieving successful intercourse [4]: sixty-nine

CN1CC(=O)N2[C@H](c3ccc4c(c3)OCO4)c3[nH]c4ccccc4c3C[C@@H]2C1=O [tadalafil]
half-life [3]: approximately eighteen

C[C@]12CC[C@H]3[C@@H](CCC4=CC(=O)CC[C@@]43C)[C@@H]1CC[C@@H]2O [testosterone]
restoring physiological testosterone levels ([5]; gels): high efficacy
men with erythrocytosis ([5]; gels or patches): 5%
men with gynecomastia, peripheral edema, exacerbation or de novo sleep apnea, acne and mild weight gain ([5]; in vivo): less than 2%
men with erythrocytosis ([5]; injections): ≤ 50%
hepatotoxicity risk ([5]; oral agents available in the United States): significant risk of hepatotoxity
liver toxicity ([5]; transdermal or intramuscular preparations): does not seem to be associated
men with local skin reactions ([5]; transdermal, patches): ≤ 40%

CCCc1nc(C)c2c(=O)[nH]c(-c3cc(S(=O)(=O)N4CCN(CC)CC4)ccc3OCC)nn12 [vardenafil]
half-life [3]: four to five
time of peak serum concentrations [3]: approximately one
